What was measured:
HCT116 parental = test: Colony formation assay (FIG. 6-B); assay type: cell-based, human; settings: 48 hours treatment, re-plated drug-free
Experimental: Cells were grown until the DMSO control wells were confluent. Cells were stained with crystal violet dye (Sigma), washed with distilled water, and imaged using a digital scanner (Hewlett-Packard). Colony formation assay was performed with HCT116 cell lines (parental and AZD1152-resistant). Cells were treated with DMSO, AMG 900, AZD1152, or paclitaxel at the indicated concentrations for 48 hours and re-plated in complete media lacking the inhibitor. After the DMSO-treated cells reached confluence, the cells were stained with crystal violet and imaged (duplicate wells).

U266-B1 = test: Multiparameter cell cycle DNA content assay (flow cytometry); assay type: cell-based; settings: Homo sapiens; U266-B1, Multiple Myeloma; 48 hours without compound withdrawal; read-out: EC50 (+4N DNA content endpoint)
Experimental: (§1) Tumor cells were seeded in a 300 μL deep 96-well plate in 150 μL of appropriate complete media at a density of 100,000 cells/well. The cells were treated with AMG 900 (10-point dose range 0.156 to 0.0003 μM) with a final DMSO concentration of 0.2% in media. Two hours prior to harvest time, the cells were pulsed with BrdU at the final concentration of 1:100 in media. After 48 hours, 100 μL of media was removed from each well with a multi-well pipetter. Then the cells were transferred to PCR tube strips in 200 μL of media. The cells were centrifuged at 2000 rpm at 18° C. for 4 minutes and the supernatant was aspirated. The cells were then fixed in 200 μL of ice cold 90% methanol and stored at −20° C. for at least 24 hours before antibody and DNA staining. Fixed cells were centrifuged at 2000 rpm for 4 minutes to remove 90% methanol. Cells were washed with 200 μL of wash buffer and then treated with 100 μL acid buffer at room temperature for 1 hour in the dark. Cells were washed twice with 200 μL wash buffer (until pH was 7.0, confirmed with pH paper). Cells were incubated with an anti-BrdU-Alexa 647 (3 μg/mL) and anti-Caspase 3-FITC (20 μ/well) antibody cocktail in wash buffer for 2 hours at room temperature in the dark. Stained cells were centrifuged and washed with 200 μL of wash buffer. Cells were counterstained with 200 μL of propidium iodide (PI) overnight at 4° C. in the dark. Data was acquired and analyzed by flow cytometer (LSRII). A threshold gate was applied according to DNA content, BrdU, and Caspase-3 positive/negative populations based on DMSO control and low/high drug-treated groups. The data was represented as a percentage of SubG1 DNA content, 4N+ DNA content, BrdU, and Caspase-3 cleavage positive populations. The concentration-response curves and EC50 values were calculated using a 4-parameter equation.

RPMI-8226 = test: as above; assay type: cell-based; settings: Homo sapiens; RPMI-8226, Multiple Myeloma; 48 hours without compound withdrawal; read-out: EC50 (+4N DNA content endpoint)
Experimental: as §1

HL-60 = test: as above; assay type: cell-based; settings: Homo sapiens; HL-60, Promyelocytic leukemia; 48 hours without compound withdrawal; read-out: EC50 (+4N DNA content endpoint)
Experimental: as §1

K562 = test: as above; assay type: cell-based; settings: Homo sapiens; K562, Chronic myeloid leukemia; 48 hours without compound withdrawal; read-out: EC50 (+4N DNA content endpoint)
Experimental: as §1

Jurkat = test: as above; assay type: cell-based; settings: Homo sapiens, T cell leukemia, 48 hours without compound withdrawal, read-out: EC50 (+4N DNA content endpoint)
Experimental: as §1

MOLT-4 = test: as above; assay type: cell-based; settings: Homo sapiens; MOLT-4, T cell leukemia; 48 hours without compound withdrawal; read-out: EC50 (+4N DNA content endpoint)
Experimental: as §1

[1] = test system: 32 human tumor cell lines; test: Antiproliferative effect across tumor cell line panel (summary); assay type: cell-based; settings: across solid and hematologic tumor cell lines (Tables 1 and 2)
Experimental: Tumor cells were seeded in a Packard View 96-well plate in 100 μL of appropriate complete media at a density of 3000 or 5000 cells/well depending on the cell line growth kinetics (broadly defined as slow vs. fast). All dilutions were performed using Biomek FX workstation. The next day cells were treated with AMG 900 (11-point dose range 0.156 to 0.0003 μM) with a final DMSO concentration of 0.12% in media. After 24 hours, the media containing compound was removed and the cells were washed with complete media. The cells were then incubated in 100 μL of fresh complete media (without compound) for 48 hours. After 48 hours, the cells were fixed by adding 100 μL of fixation buffer to 100 μL of complete media. […] Quantification of individual cell nuclear area and intensity was performed based on Hoechst 33342 DNA dye fluorescence. A threshold on the nuclear area based on the DMSO-treated control well was set to quantify the number of normal size nuclei from nuclear debris and polyploidy cells. […] The dose-concentration curves and EC50 values were calculated using a 4-parameter equation.
Tumor cells were seeded in a 300 μL deep 96-well plate in 150 μL of appropriate complete media at a density of 100,000 cells/well. […] Data was acquired and analyzed by flow cytometer (LSRII). […] The concentration-response curves and EC50 values were calculated using a 4-parameter equation.

EC50 (U266-B1): 2 nM
EC50 (RPMI-8226): 2 nM
EC50 (HL-60): 2 nM
EC50 (K562): 1 nM
EC50 (Jurkat): 1 nM
EC50 (MOLT-4): 2 nM
EC50 [1]: 1 to 5 nM
Compound: Cc1csc(-c2nnc(Nc3ccc(Oc4ncccc4-c4ccnc(N)n4)cc3)c3ccccc23)c1 [AMG 900, N-(4-((3-(2-amino-4-pyrimidinyl)-2-pyridinyl)oxy)phenyl)-4-(4-methyl-2-thienyl)-1-phthalazinamine]
concentrations inhibiting colony formation (HCT116 parental): ≥ 5 nmol/L
